# Assay results as given in patent publication US11020478B2, “Methods for modulating angiogenesis of cancers refractory to anti-VEGF treatment” (INIS BIOTECH LLC, priority 2013, dated 2021).
# Positions count from the first letter of the chain named.
# B1: Clone 21: fully human anti-Gal1 monoclonal antibody (IgG1) from scFv library; VH SEQ ID NO: 15, VK SEQ ID NO: 19 (antibody, V domains shown)
# VH: EVQLLESGGGLVQPGGSLRLSCAASGFTFSSYAMSWVRQAPGKGLEWVSEIGRVGVNTLYADSVKGRFTISRDNSKNTLYLQMNSLRAEDTAVYYCAKKATQFDYWGQGTLVTVSS
# VL: DIQMTQSPSSLSASVGDRVTITCRASQSISSYLNWYQQKPGKAPKLLIYRASRLQSGVPSRFSGSGSGTDFTLTISSLQPEDFATYYCQQTIGPPDTFGQGTKVEIKR
# modifications: IgG1 format
# B2: Clone 42: fully human anti-Gal1 monoclonal antibody (IgG1) from scFv library; VH SEQ ID NO: 23, VK SEQ ID NO: 27 (antibody, V domains shown)
# VH: EVQLLESGGGLVQPGGSLRLSCAASGFTFSSYAMSWVRQAPGKGLEWVSGISGSGDYTSYADSVKGRFTISRDNSKNTLYLQMNSLRAEDTAVYYCAKGYGAFDYWGQGTLVTVSS
# VL: B1 VL with R50G, R53W, T91S, I92A, G93N, P94Y, D96S
# modifications: IgG1 format
# Key:
# HUVEC = experiment: Binding of 488-Gal1 to ECs (flow cytometry); format: cell-based, human
# HUVEC migration = experiment: EC migration assay (HUVEC); format: cell-based, human; design: inhibitory activity in Gal1-induced cell migration: dose or concentration left out as unconfirmed
# Protocol: (§1) Cells were incubated at 37° C. for periods ranging from 0 to 24 h and were visualized by phase-contrast microscopy. Capillary-like tubular structures were scored by counting the number of tubules (closed areas) per well in a phase-contrast microscope (Nikon E-100). For migration assays, ECs (4×10^4/well) transfected or not with specific siRNA were resuspended in M199 medium supplemented with 1% FCS. Cells were placed into the top chamber of the insert while the bottom well was filled with Gal1 or VEGF-A in the absence or presence of the above mentioned stimuli. After 24 hours, inserts were stained with crystal violet (Sigma) and analyzed in an inverted microscope. For each filter, 4 images were obtained and cells were counted with ImageJ software v1.46r (NIH). […] After 24 hours, cells were incubated in the presence of 0.8 μCi [^3H]-thymidine (NEN Dupont). Cells were then harvested and radioactivity was measured in a 1414 Liquid Scintillation Counter (Perkin Elmer). Tumor-associated ECs were identified by flow cytometry using Alexa Fluor 647-conjugated anti-CD34 (RAM34; eBioscience) and FITC-conjugated anti-CD45 (J33; Immunotech). Microvessel density (MVD) was determined by counting the number of CD31^+ microvessels present in 10 mm^2. Ten random 400× fields were counted.
# ECs = experiment: EC proliferation assay ([3H]-thymidine); format: cell-based, human
# Protocol: as §1
# HUVEC tube formation = experiment: Capillary-like tube formation on Matrigel (HUVEC); format: cell-based, human; details: for tube formation induced by Gal1 / inhibitory activity in Gal1-induced formation of tubular structures (tubulogenesis): HUVEC
# Protocol: as §1
# [1] = test system: Gal1 peptides with the consensus motif MAADGDF; experiment: PEPperMAP Conformational Epitope Mapping Analysis; format: binding; details: antibody 10 μg/mL; all three peptide lengths
# Protocol: Epitope mapping: In order to determine the specific conformational epitopes recognized by the new anti-Gal1 antibodies, a PEPperMAP® Conformational Epitope Mapping Analysis was performed.
# human recombinant Gal-1 = molecular target: T1, human recombinant Gal-1 (Homo sapiens, UniProt P09382); experiment: Affinity assay (SPR) of fully human anti-Gal1 monoclonal antibodies; format: binding; details: for Ka: kinetics model of interaction adjustment 1:1, BIAEvaluation 3.0
# T1 construct: made in house
# T1 sequence (P09382 whole entry): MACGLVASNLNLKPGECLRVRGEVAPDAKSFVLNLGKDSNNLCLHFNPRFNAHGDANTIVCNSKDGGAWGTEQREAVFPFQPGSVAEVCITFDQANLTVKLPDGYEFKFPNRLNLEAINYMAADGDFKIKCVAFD
# Description: Also conducted was an affinity assay (SPR) for the newly developed fully human anti-Gal1 monoclonal antibodies. In order to characterize affinities of the new anti-Gal-1 monoclonal antibodies, dose-response (RU) curves were collected of the interactions between the monoclonal antibodies and human recombinant Gal-1 (FIG. 14A and FIG. 14B).
# By using the BIAEvaluation 3.0 software in a kinetics model of interaction adjustment 1:1, kinetic parameters, constants of dissociation (Kd) and affinity (Ka) were calculated.
molecule,measurement,setting,value
CC(=O)N[C@H]1[C@@H](OCc2ccccc2)O[C@H](CO)[C@H](O)[C@@H]1O [benzyl-α-GalNAc],Gal1 binding to ECs in presence of inhibitor,HUVEC,only partially inhibitory
"OC[C@H]1O[C@@H](O[C@H]2[C@H](O)[C@@H](O)C(O)O[C@@H]2CO)[C@H](O)[C@@H](O)[C@H]1O (some centres unmarked) [lactose, reference compound]",EC migration induced by Gal1,HUVEC migration,almost completely prevented
same,EC proliferation induced by Gal1,ECs,almost completely prevented
same,tube formation induced by Gal1,HUVEC tube formation,almost completely prevented
"O[C@H]1[C@H]2[C@H](O)CCCN2C[C@H]1O [swainsonine, reference compound]",Gal1 binding to ECs in presence of inhibitor,HUVEC,almost completely abrogated
same,EC migration induced by Gal1,HUVEC migration,almost completely prevented
same,EC proliferation induced by Gal1,ECs,almost completely prevented
same,tube formation induced by Gal1,HUVEC tube formation,almost completely prevented
Gal1^N46D: Gal1 mutant lacking carbohydrate-binding activity [reference compound],binding to ECs,HUVEC; any of the concentrations tested,no binding
same,impact on EC response,HUVEC tube formation,no impact
B1,binding activity against epitope-like spots formed by adjacent peptides with consensus motif MAADGDF,[1],moderate to high binding activity
same,interaction with human recombinant Gal1,human recombinant Gal-1,high specific interactions
same,Ka,human recombinant Gal-1,649000 M⁻¹
same,inhibitory activity in Gal1-induced cell migration,HUVEC migration,significantly blocked
same,inhibitory activity in Gal1-induced formation of tubular structures (tubulogenesis),HUVEC tube formation,significantly blocked
B2,binding activity against epitope-like spots formed by adjacent peptides with consensus motif MAADGDF,[1],higher binding activity
same,interaction with human recombinant Gal1,human recombinant Gal-1,high specific interactions
same,Ka,human recombinant Gal-1,7.63e+06 M⁻¹
same,inhibitory activity in Gal1-induced cell migration,HUVEC migration,significantly blocked
same,inhibitory activity in Gal1-induced formation of tubular structures (tubulogenesis),HUVEC tube formation,significantly blocked
